ChEMBL document CHEMBL3875157, “Neurodegenerative diseases linked to misfolded proteins and their therapeutic approaches: A review” (Eur J Med Chem, 2016)

Target: Acetylcholinesterase (Homo sapiens, UniProt P22303)
Assay: Inhibition of acetylcholinesterase (unknown origin)

Sequence of Acetylcholinesterase (P22303 whole entry): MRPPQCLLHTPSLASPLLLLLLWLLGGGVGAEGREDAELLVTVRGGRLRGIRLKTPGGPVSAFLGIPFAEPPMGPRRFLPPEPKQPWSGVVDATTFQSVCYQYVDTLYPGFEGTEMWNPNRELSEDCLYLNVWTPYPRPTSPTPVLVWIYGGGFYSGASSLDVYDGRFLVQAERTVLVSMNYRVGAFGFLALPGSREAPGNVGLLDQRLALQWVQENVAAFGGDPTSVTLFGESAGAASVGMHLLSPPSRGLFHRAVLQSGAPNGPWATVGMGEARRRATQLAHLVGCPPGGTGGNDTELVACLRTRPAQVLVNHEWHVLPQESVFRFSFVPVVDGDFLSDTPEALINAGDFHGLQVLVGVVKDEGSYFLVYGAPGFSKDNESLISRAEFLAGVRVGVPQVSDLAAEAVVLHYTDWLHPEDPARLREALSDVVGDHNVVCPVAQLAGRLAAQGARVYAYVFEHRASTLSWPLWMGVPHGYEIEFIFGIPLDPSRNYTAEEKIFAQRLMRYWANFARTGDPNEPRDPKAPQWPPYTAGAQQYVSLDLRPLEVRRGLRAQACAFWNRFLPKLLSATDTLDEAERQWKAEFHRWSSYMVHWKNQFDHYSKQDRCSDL

Compound `CCOC(=O)C1=C(C)Oc2nc3c(c(N)c2C1c1ccc(OC)cc1)CCCC3` (stereo unspecified) has an IC50 of 182 to 868 nM.
